Laboratory results taken from ChEMBL document CHEMBL2046391, “Calyxamides A and B, cytotoxic cyclic peptides from the marine sponge Discodermia calyx” (J Nat Prod, 2012).
Calls of active or inactive are those of the source.

Key:
[1] = system: Botrytis cinerea; test: Antimicrobial activity against Botrytis cinerea at 100 ug/disc measured every 24 hrs for 4 days by disc diffusion method; assay type: functional, organism-based
[2] = system: Colletotrichum acutatum; test: Antimicrobial activity against Colletotrichum acutatum at 100 ug/disc measured every 24 hrs for 4 days by disc diffusion method; assay type: functional, organism-based
[3] = system: Drosophila melanogaster; test: Insecticidal activity against Drosophila melanogaster at 100 ug; assay type: functional, organism-based
[4] = system: Aedes aegypti; test: Insecticidal activity against Aedes aegypti larvae at 100 ug/mL after 24 hrs; assay type: functional, organism-based
[5] = system: Beauveria bassiana; test: Antimicrobial activity against Beauveria bassiana ARSEF 8354 at 100 ug/disc measured every 24 hrs for 4 days by disc diffusion method; assay type: functional
[6] = system: Escherichia coli; test: Antimicrobial activity against Escherichia coli at 100 ug/disc measured every 24 hrs for 4 days by disc diffusion method; assay type: functional, organism-based
[7] = system: Bacillus cereus; test: Antimicrobial activity against Bacillus cereus at 100 ug/disc measured every 24 hrs for 4 days by disc diffusion method; assay type: functional, organism-based
[8] = system: Lactuca sativa; test: Phytotoxicity against lettuce seedling at 50 ug/mL by seedling elongation assay; assay type: functional, organism-based
[9] = system: Saccharomyces cerevisiae; test: Antimicrobial activity against Saccharomyces cerevisiae at 100 ug/disc measured every 24 hrs for 4 days by disc diffusion method; assay type: functional, organism-based
[10] = system: MCF7; test: Antiproliferative activity against human MCF7 cells at 100 uM by XTT assay; assay type: functional, cell-based
[11] = system: Caco-2; test: Antiproliferative activity against human Caco2 cells at 100 uM by XTT assay; assay type: functional, cell-based

Measured: Activity

CC[C@H](C)C[C@H](C)[C@H]1OC(=O)[C@H](Cc2ccccc2)NC(=O)/C(C)=C/[C@H](C)[C@@H](O)/C(C)=C/[C@H](C)[C@H](OC(C)=O)/C(C)=C/[C@@H]1C
inactive: [1] | [2] | [3] | [4] | [5] | [6] | [7] | [8] | [9]

CC[C@H](C)C[C@H](C)[C@H]1OC(=O)[C@H](Cc2ccccc2)NC(=O)/C(C)=C/[C@H](C)[C@@H](O)/C(C)=C/[C@H](C)[C@H](O)/C(C)=C\[C@@H]1C
inactive: [10] | [11]
